This note sets out measurements from PubChem BioAssay AID1671276.

Usually IC50 stands for the concentration at which inhibition is half-maximal.

Structures are written as SMILES.

The target of the assay is Ephrin type-B receptor 4 (Homo sapiens) (UniProt P54760). Kind of assay: EPHB4 kinase inhibitors, dose response, biochemical, Z'-LYTE, FRET, protease-coupled, direct format (AID 1671276). To be noted: Z'-LYTE FRET peptide phosphorylation.
Chain of Ephrin type-B receptor 4 (Homo sapiens) (P54760 whole entry, looked up): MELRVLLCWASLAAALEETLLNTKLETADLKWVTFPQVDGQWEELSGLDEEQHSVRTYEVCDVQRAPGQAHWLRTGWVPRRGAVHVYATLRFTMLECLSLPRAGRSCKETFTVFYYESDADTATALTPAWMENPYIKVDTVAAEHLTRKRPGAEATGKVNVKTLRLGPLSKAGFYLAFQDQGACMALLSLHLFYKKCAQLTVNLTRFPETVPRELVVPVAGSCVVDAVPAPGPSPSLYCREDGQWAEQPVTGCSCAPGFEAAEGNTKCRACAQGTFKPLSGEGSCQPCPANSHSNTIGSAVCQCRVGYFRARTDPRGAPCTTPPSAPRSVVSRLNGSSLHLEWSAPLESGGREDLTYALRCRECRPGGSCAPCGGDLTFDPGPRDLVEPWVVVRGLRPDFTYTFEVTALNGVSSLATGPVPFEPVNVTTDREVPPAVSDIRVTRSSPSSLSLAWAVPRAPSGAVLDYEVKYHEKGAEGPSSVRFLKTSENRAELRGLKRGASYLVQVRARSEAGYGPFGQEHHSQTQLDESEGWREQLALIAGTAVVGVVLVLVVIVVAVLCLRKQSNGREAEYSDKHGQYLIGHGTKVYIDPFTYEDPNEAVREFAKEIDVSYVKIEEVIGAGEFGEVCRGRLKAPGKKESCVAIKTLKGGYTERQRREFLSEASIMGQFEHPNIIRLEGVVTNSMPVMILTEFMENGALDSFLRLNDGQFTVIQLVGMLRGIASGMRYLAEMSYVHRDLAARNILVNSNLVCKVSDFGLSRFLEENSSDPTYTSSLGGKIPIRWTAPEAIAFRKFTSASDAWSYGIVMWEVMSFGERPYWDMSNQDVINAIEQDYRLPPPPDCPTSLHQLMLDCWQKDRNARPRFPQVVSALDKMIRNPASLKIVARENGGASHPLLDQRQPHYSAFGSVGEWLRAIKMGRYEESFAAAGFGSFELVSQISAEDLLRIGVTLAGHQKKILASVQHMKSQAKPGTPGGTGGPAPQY

As to `COc1cc2ncnc(Nc3cccc(Cl)c3)c2cc1OC`, the concentration for half-maximal inhibition (IC50) was 1.59 µM.
